In US20240140931A1, “TRICYCLIC COMPOUNDS AND USES THEREOF” (HUTCHMED LIMITED, priority 2021, published 2024):

Legend:
[1] = test system: Miapaca2 3D spheroids; assay: Assay of cell proliferation on Miapaca2 3D spheroids; assay type: cell-based; conditions: Homo sapiens, MIA PaCa-2, 120 h, CellTiter-Glo 3D, 5 days treatment
Summary of the method: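 Miapaca2 spheroids (300 cells/well, formed by day 2) exposed 5 days at 37 °C to compound in 3-fold dilution series, 0.1% DMSO final. Viability by CellTiter-Glo 3D luminescence; survival % relative to day-2 and day-7 DMSO controls, IC50 from four-parameter logistic fit.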

[2] = molecular target: Human full-length SHP2 recombinant protein (Homo sapiens (Human), UniProt Q06124); assay: Assay of full-length SHP2 phosphatase activity; assay type: biochemical; conditions: DiFMUP substrate, with activating peptide
Summary of the method: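 Full-length human SHP2 preincubated 30 min at RT with activating peptide and compound (1% DMSO final). DiFMUP substrate added, reaction 60 min at 25 °C in dark. Fluorescence at ex 355/em 460 nm; IC50 from 4-parameter fit against enzyme-free and vehicle controls.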

[3] = test system: pERK1/2 (Thr202/Tyr204) in Miapaca2 cells; assay: Assay of intracellular pERK1/2 (Thr202/Tyr204) phosphorylation; assay type: cell-based; conditions: Homo sapiens, MIA PaCa-2, 2 h, pERK1/2 (Thr202/Tyr204) HTRF
Summary of the method: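 Miapaca2 cells treated 2 h at 37 °C with compound (3-fold series; final DMSO 0.5%), then lysed 1 h. pERK1/2 (Thr202/Tyr204) detected by HTRF (665/615 nm ratio) after 2 h at 25 °C; normalized to cell-free lysis buffer and DMSO-treated cell controls; IC50 by four-parameter fit.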

Row | IC50 [1] | IC50 [2] | IC50 [3] | SMILES
1 | 3 nM | 0.9 nM | 7 nM | CCNC(=O)C#Cc1ccc2c(c1)[C@@H](N)C1(CCN(c3cnc(Sc4c(F)cnc(N)c4Cl)cn3)CC1)C2 [Compound 269]
2 | 0.6 nM | 0.4 nM | 2 nM | NC(=O)C#Cc1ccc2c(c1)[C@@H](N)C1(CCN(c3cnc(Sc4ccnc(N)c4Cl)cn3)CC1)C2 [Compound 270]
3 | 2 nM | 1 nM | 4 nM | Cc1nc(Sc2ccnc(N)c2Cl)cnc1N1CCC2(CC1)Cc1ccc(C#CC(N)=O)cc1[C@H]2N [Compound 271]
4 | 2 nM | 1 nM | 5 nM | CCNC(=O)C#Cc1ccc2c(c1)[C@@H](N)C1(CCN(c3cnc(Sc4cc(F)nc(N)c4Cl)cn3)CC1)C2 [Compound 273]
5 | 3 nM | 1 nM | 6 nM | Cc1nc(Sc2ccnc(N)c2F)c(N)nc1N1CCC2(CC1)Cc1ccc(C#CC(N)=O)cc1[C@H]2N [Compound 274]
6 | 2 nM | 0.5 nM | 2 nM | NC(=O)C#Cc1ccc2c(c1)[C@@H](N)C1(CCN(c3cnc(Sc4ccnc(N)c4F)c(N)n3)CC1)C2 [Compound 275]
7 | 3 nM | 2 nM | 4 nM | Cc1nc(Sc2ccnc(N)c2Cl)c(N)nc1N1CCC2(CC1)Cc1ccc(C#CC(N)=O)cc1[C@H]2N [Compound 276]
8 | 5 nM | 1 nM | 11 nM | Cc1nc(N2CCC3(CC2)Cc2ccc(C#CC(N)=O)cc2[C@H]3N)cnc1Sc1ccnc(N)c1Cl [Compound 277]
9 | 16 nM | 5 nM | 34 nM | CCNC(=O)C#Cc1ccc2c(c1)[C@@H](N)C1(CCN(c3ncc(Sc4ccnc(N)c4Cl)nc3C#N)CC1)C2 [Compound 278]
10 | 42 nM | 0.4 nM | 183 nM | Nc1nccc(Sc2cnc(N3CCC4(CC3)Cc3ccc(C#CC(=O)O)cc3[C@H]4N)cn2)c1Cl [Compound 279, (S)-3-(1-amino-1′-(5-((2-amino-3-chloropyridin-4-yl)thio)pyrazin-2-yl)-1,3-dihydrospiro[indene-2,4′-piperidin]-6-yl)propiolic acid]
11 | 35 nM | 11 nM | 35 nM | Cc1nc(N2CCC3(CC2)Cc2ccc(C#CC(N)=O)cc2[C@H]3N)cnc1Sc1cc(N)nc(Cl)c1Cl [Compound 280]
12 | 24 nM | 10 nM | 167 nM | Cc1nc(N2CCC3(CC2)Cc2ccc(C#CC(N)=O)cc2[C@H]3N)cnc1Sc1ccnc(N)n1 [Compound 281]
13 | 2 nM | 1 nM | 3 nM | C#Cc1ccc2c(c1)[C@@H](N)C1(CCN(c3nc(N)c(Sc4ccnc(N)c4Cl)c(=O)n3C)CC1)C2 [Compound 282]
14 | 243 nM | 1 nM | 737 nM | Cc1nc(Sc2ccnc(N)c2Cl)c(N)nc1N1CCC2(CC1)Cc1ccc(C#CC(=O)O)cc1[C@H]2N [Compound 283]
15 | 4 nM | 2 nM | 5 nM | C#Cc1ccc2c(c1)[C@@H](N)C1(CCN(c3nc(N)c(-c4cn(C)c5ncccc45)c(=O)n3C)CC1)C2 [Compound 284]
16 | 9 nM | 2 nM | 10 nM | CC#Cc1ccc2c(c1)[C@@H](N)C1(CCN(c3nc(N)c(-c4cn(C)c5ncccc45)c(=O)n3C)CC1)C2 [Compound 286]

Row | IC50 [1] | IC50 [2] | IC50 [3] | SMILES
17 | 2 nM | 2 nM | 4 nM | CC#Cc1ccc2c(c1)[C@@H](N)C1(CCN(c3ncc(Sc4ccnc(N)c4Cl)c(=O)n3C)CC1)C2 [Compound 288]
18 | 2 nM | 2 nM | 4 nM | CC#Cc1ccc2c(c1)[C@@H](N)C1(CCN(c3nc(N)c(Sc4ccnc(N)c4Cl)c(=O)n3C)CC1)C2 [Compound 289]
19 | 0.3 nM | 1 nM | 4 nM | CCNC(=O)C#Cc1ccc2c(c1)[C@@H](N)C1(CCN(c3ncc(Sc4ccnc(N)c4Cl)nc3C)CC1)C2 [Compound 290]
20 | 0.3 nM | 1 nM | 9 nM | COCC#Cc1ccc2c(c1)[C@@H](N)C1(CCN(c3ncc(Sc4ccnc(N)c4Cl)c(=O)n3C)CC1)C2 [Compound 291]
21 | 1 nM | 0.9 nM | 6 nM | CNC(=O)C#Cc1ccc2c(c1)[C@@H](N)C1(CCN(c3cnc(Sc4ccnc(N)c4Cl)cn3)CC1)O2 [Compound 292]
22 | 0.9 nM | 1 nM | 5 nM | CCNC(=O)C#Cc1ccc2c(c1)[C@@H](N)C1(CCN(c3cnc(Sc4ccnc(N)c4Cl)cn3)CC1)O2 [Compound 293]
23 | 9 nM | 1 nM | 18 nM | C#Cc1ccc2c(c1)[C@@H](N)C1(CCN(c3ncc(Sc4ccnc(N)c4Cl)c(=O)n3CC)CC1)C2 [Compound 294]
24 | 4 nM | 2 nM | 22 nM | C#Cc1ccc2c(c1)[C@@H](N)C1(CCN(c3ncc(Sc4ccnc(N)c4Cl)c(=O)n3C)CC1)O2 [Compound 295]
25 | 0.7 nM | 0.3 nM | 2 nM | Nc1nccc(Sc2cnc(N3CCC4(CC3)Cc3ccc(C#CC(=O)NC5CC5)cc3[C@H]4N)cn2)c1Cl [Compound 296]
26 | 0.3 nM | 0.3 nM | 1 nM | COCCNC(=O)C#Cc1ccc2c(c1)[C@@H](N)C1(CCN(c3cnc(Sc4ccnc(N)c4Cl)cn3)CC1)C2 [Compound 297]
27 | 0.3 nM | 0.3 nM | 1 nM | COCCNC(=O)C#Cc1ccc2c(c1)[C@@H](N)C1(CCN(c3cnc(Sc4ccnc(N)c4F)cn3)CC1)C2 [Compound 298]
28 | 1 nM | 1 nM | 2 nM | C#Cc1ccc2c(c1)[C@@H](N)C1(CCN(c3ncc(Sc4ccnc(N)c4Cl)c(=O)n3C)CC1)C2 [Compound 299, (S)-5-((2-amino-3-chloropyridin-4-yl)thio)-2-(1-amino-6-ethynyl-1,3-dihydrospiro[indene-2,4′-piperidin]-1′-yl)-3-methylpyrimidin-4(3H)-one]
29 | 16 nM | 1 nM | 13 nM | COC(=O)C#Cc1ccc2c(c1)[C@@H](N)C1(CCN(c3cnc(Sc4ccnc(N)c4Cl)cn3)CC1)C2 [Compound 300]
30 | 1 nM | 0.4 nM | 5 nM | COCCN(C)C(=O)C#Cc1ccc2c(c1)[C@@H](N)C1(CCN(c3cnc(Sc4ccnc(N)c4Cl)cn3)CC1)C2 [Compound 301]
31 | 1 nM | 0.4 nM | 5 nM | CN(C)C(=O)C#Cc1ccc2c(c1)[C@@H](N)C1(CCN(c3cnc(Sc4ccnc(N)c4Cl)cn3)CC1)C2 [Compound 302]
